# PMC12817916, “A small-molecule HSP90 inhibitor, NVP-HSP990, alleviates rotavirus infection” (Journal of Virology, 2025)
# Test system: RV EDIM strain
# Test: RV EDIM diarrhea model in suckling mice (treatment after diarrhea onset)
# Assay type: in vivo, BALB/c suckling mice
# Procedure: BALB/c mice were purchased from Gempharmatech Inc. (Suzhou, China) and housed under SPF conditions (22 ± 1°C, 12 h light/dark cycle). Suckling mice were obtained by mating male and female adult BALB/c mice (12- to 16-week-old). Only the 7-day-old BALB/c suckling mice with body weights ranging from 2.5 g to 4.5 g were selected for RV diarrhea models. For induction of RV diarrhea, 1 × 10^6 PFU of SA11 strain or 10 × DD50 of EDIM strain in 20 µL PBS was orally inoculated using a pipette tip to 7-day-old BALB/c suckling mice regardless of their sexes, as sex has no significant influence on RV diarrhea occurrence. We used a scoring system to evaluate fecal consistency and color as described with some modification ([27]): no stool or brown formed stool (1 point); brown soft stool (2 points); yellow soft stool (3 points); and yellow watery stool (4 points). Mice with scores of ≥2 meant diarrhea occurrence, while mice with scores of 1 meant no diarrhea. At the end of each experiment, all infected or drug-treated suckling mice were humanely euthanized via CO2 asphyxiation.
# Seven-day-old BALB/c suckling mice meeting the weight criteria within each litter were randomly assigned to experimental groups. Each litter was allocated to ensure one to three suckling mice per experimental group (variations dependent on the total number of groups). Data from suckling mice assigned to the same group across multiple litters were aggregated to achieve a total sample size of n = 3–6 per experimental group. Then, the suckling mice were orally inoculated with 1 × 10^6 PFU of the SA11 strain or 10 × DD50 of the EDIM strain, or with an equal amount of PBS as mock infection. For SA11 infection, the suckling mice were orally treated once with indicated doses of drugs or with an equal volume of DMSO as control at 2 h p.i. For EDIM infection, the suckling mice were orally treated with 0.2 mg/kg/day NVP-HSP990, 30 mg/kg/day ribavirin, or an equal amount of DMSO as control from 2 days post-infection (d p.i.) to indicated time points. Diarrhea scores and body weight were monitored from day 0 to day 7 post-infection in the SA11 infection model, and from day 0 to day 9 post-diarrhea occurrence (2–11 d p.i.) in the EDIM infection model. Blinding was applied throughout data collection and analysis.
# The RV-infected suckling mice were sacrificed by CO2 asphyxiation at the indicated times, and small intestines (including duodenum, jejunum, and ileum) or colon was homogenized in 0.3 mL DMEM, centrifuged at 12,000 × g for 5 min at 4°C, and the supernatant was collected. Virus contents in the supernatant were titrated with PFA as described above. Viral antigens in the supernatant were detected with enzyme-linked immunosorbent assay (ELISA) kits for RV (CUSABIO, China) following the manufacturer’s instructions. For qPCR analysis of RV protein expression, the intestines were longitudinally split and washed in 1 mL DMEM by shaking for 30 s. Then, the tissues were cut into 0.5 cm segments, incubated in Hank’s buffer containing 2.5 mM EDTA-Na2 and 1 mM dithiothreitol (Sangon Biotech, China) at 37°C with rotation at 200 rpm for 30 min, filtered with a 70 µm strainer. Then the epithelial cells were pelleted by centrifugation at 500 × g for 5 min, purified with 20% Percoll (Cytiva, Sweden), and lysed in Trizol for RNA extraction and further qPCR analysis.
# The jejunum and ileum of suckling mice were fixed in 4% paraformaldehyde for 24 h, washed with PBS twice, and then subjected to paraffin embedding and slicing at 5 µm thickness. The sections were stained with hematoxylin and eosin (Beyotime, China) and observed with an Olympus BX51 microscope, and the data were processed by CaseViewer 2.4 software. For immunohistochemistry analysis, the fixed tissues were dehydrated in 30% sucrose, embedded in Optimal Cutting Temperature compound, frozen with liquid nitrogen, and cryosliced at 10 µm thickness. […]
structure (smiles),measurement,setting,value
COc1cccc(-c2cc(F)ccc2[C@H]2Cc3nc(N)nc(C)c3C(=O)N2)n1 [NVP-HSP990],therapeutic effect on diarrhea compared to ribavirin,"0.2 mg/kg/day NVP-HSP990 vs 30 mg/kg/day ribavirin, oral, 5 days",superior therapeutic effect
same,weight gain in EDIM-infected suckling mice,"0.2 mg/kg/day oral for 5 days, observed for another 5 days",did not adversely affect
same,diarrhea scores,"0.2 mg/kg/day oral for 5 days, observed for another 5 days, compared to untreated group",significantly reduced
same,foamy degeneration and viral infection in small intestinal epithelial cells,"0.2 mg/kg/day oral from 2 d p.i., 3 consecutive days, compared to untreated controls",marked reduction
same,RV viral antigens in colonic contents,"0.2 mg/kg/day oral, 3 days, ELISA, vs untreated or ribavirin-treated (30 mg/kg/day) groups",significantly lower
same,viral antigen (VP6 and NSP4) expression in intestinal epithelial cells,"0.2 mg/kg/day oral, 3 days, qPCR, compared to untreated group",significantly reduced
